# According to ChEMBL document CHEMBL1201862, “PubChem BioAssay data set” (2004):
# The source made the active and inactive calls.
# Tests used:
# [1] = viability loss in HeLa cells – cytotoxicity control for MgcRacGAP inhibitor project, dose response (AID 624300); format: functional
# [2] = biological target: T1, DNA repair protein RAD52 homolog (Homo sapiens, UniProt P43351); format: functional, biochemical
# T1 sequence (P43351 whole entry): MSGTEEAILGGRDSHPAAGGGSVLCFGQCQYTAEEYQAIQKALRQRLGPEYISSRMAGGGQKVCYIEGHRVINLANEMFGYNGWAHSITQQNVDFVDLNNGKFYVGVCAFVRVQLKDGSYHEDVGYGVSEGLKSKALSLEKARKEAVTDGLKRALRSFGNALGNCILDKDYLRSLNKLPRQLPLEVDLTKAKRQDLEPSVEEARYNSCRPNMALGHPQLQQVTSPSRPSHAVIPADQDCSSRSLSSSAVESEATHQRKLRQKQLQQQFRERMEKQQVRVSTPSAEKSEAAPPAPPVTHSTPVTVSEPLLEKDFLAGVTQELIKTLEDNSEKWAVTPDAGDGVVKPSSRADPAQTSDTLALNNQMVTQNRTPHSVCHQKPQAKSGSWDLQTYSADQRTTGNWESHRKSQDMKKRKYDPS
# Paired box protein Pax-8 = Paired box protein Pax-8 (Homo sapiens, UniProt Q06710); experiment: PAX8 transcriptional activity inhibition in RMG-I – RMG-I cells, luciferase, cherry-pick, dose response (AID 687027); format: functional, cell-based;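 note: luciferase reporter driven by Pax8 target thyroperoxidase promoter measured by SteadyGlo luminescence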
# [3] = general cell-killing toxicity readout – plate reader, dry powder samples, cytotoxicity control for PAX8 inhibitor project, dose response (AID 743021); format: functional, cell-based
# [4] = viability of uninfected HEp-2 cells – cell-based, HTS, cytotoxicity control for RSV inhibitor project, dose response (AID 2410); format: functional; conditions: human respiratory syncytial virus
# [5] = blockers of HIV-1 envelope-mediated cell-cell fusion – cherry-pick, dose response (AID 652057); format: functional, cell-based
# [6] = blockers of HIV-1 ZM109 envelope-driven cell-cell fusion – HeLa effector, CEM target cells, luciferase, cherry-pick, dose response (AID 652058); format: functional, cell-based;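 note: luciferase signal from HIV-1 Env mediated cell-cell fusion of effector and target cells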
# [7] = off-target signal loss in HeLa-CEM21 co-culture – HeLa F-luc CTL cells, cherry-picked, counter-screen for HIV-1 Env fusion inhibitor project, dose response (AID 652040); format: functional, cell-based;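 note: potency for signal decrease marking cytotoxic or nonspecific inhibition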
# [8] = HIV-1 AD8 envelope cell-cell fusion blockers – cherry-pick, dose response (AID 652062); format: functional, cell-based;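 note: luciferase signal from cell-cell fusion driven by HIV-1 clade B AD8 Env; potency is for inhibitors of fusion seen as a drop in luminescence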
# cells [9] = experiment: cells
# [10] = biological target: T2, Low molecular weight phosphotyrosine protein phosphatase (Homo sapiens, UniProt P24666); format: functional; conditions: read-out: IC50_Mean
# T2 sequence (P24666 whole entry): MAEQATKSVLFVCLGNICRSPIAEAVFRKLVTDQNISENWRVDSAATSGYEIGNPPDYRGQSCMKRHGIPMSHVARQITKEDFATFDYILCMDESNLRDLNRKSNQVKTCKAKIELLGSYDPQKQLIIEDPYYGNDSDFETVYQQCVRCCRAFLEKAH
# [11] = biological target: T2, Low molecular weight phosphotyrosine protein phosphatase; format: functional; conditions: read-out: IC50_Mean; remark: listed apart in the source
# [12] = biological target: T3, Hepatocyte nuclear factor 4-alpha (Homo sapiens, UniProt P41235); format: functional, cell-based;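 note: biochemical luminescence-based dose-response counterscreen measuring inhibition of HNF4 dimerization, run alongside a screen for blockers of ABHD5–perilipin-5 interaction; split luciferase complementation of HNF4 fusion proteins in cell lysate measuring dimerization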
# T3 sequence (P41235 whole entry): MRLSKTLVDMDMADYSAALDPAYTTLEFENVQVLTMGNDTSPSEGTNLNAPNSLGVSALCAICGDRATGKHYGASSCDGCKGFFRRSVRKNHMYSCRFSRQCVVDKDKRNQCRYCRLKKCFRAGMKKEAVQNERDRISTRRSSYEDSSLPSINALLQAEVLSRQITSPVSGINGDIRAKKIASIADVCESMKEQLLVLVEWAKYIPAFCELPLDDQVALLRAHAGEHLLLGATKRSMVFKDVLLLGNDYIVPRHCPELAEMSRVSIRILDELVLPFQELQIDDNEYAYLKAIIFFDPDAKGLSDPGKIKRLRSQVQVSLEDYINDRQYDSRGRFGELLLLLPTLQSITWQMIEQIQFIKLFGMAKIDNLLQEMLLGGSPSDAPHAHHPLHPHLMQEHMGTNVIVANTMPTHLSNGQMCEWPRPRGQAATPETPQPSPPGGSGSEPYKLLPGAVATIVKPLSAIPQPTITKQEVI
# Protein skinhead-1 = biological target: T4, Protein skinhead-1 (Caenorhabditis elegans, UniProt P34707); format: functional
# T4 sequence (P34707 whole entry): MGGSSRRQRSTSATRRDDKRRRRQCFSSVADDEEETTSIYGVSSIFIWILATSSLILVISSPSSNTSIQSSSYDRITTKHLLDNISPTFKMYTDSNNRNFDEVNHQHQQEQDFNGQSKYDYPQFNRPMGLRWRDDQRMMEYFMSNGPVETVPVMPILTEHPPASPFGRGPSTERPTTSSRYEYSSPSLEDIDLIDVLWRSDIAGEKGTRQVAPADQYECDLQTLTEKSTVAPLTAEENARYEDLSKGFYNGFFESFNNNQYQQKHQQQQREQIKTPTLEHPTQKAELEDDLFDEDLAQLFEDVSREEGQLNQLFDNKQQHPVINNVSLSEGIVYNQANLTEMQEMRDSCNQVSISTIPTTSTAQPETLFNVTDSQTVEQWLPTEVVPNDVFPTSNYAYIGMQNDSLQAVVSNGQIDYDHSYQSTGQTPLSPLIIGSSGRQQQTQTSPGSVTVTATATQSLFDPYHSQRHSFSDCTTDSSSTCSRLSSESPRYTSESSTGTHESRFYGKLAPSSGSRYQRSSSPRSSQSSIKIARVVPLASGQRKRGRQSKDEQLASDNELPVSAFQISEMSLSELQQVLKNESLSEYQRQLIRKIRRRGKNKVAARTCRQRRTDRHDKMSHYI
# cells [13] = format: functional, cell-based
# [14] = biological target: T5, Nuclear receptor subfamily 0 group B member 1 (Homo sapiens, UniProt P51843); format: functional, cell-based;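 note: HEK293T cells transfected with SF-1 and DAX-1 plus StAR promoter luciferase reporter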
# T5 sequence (P51843 whole entry): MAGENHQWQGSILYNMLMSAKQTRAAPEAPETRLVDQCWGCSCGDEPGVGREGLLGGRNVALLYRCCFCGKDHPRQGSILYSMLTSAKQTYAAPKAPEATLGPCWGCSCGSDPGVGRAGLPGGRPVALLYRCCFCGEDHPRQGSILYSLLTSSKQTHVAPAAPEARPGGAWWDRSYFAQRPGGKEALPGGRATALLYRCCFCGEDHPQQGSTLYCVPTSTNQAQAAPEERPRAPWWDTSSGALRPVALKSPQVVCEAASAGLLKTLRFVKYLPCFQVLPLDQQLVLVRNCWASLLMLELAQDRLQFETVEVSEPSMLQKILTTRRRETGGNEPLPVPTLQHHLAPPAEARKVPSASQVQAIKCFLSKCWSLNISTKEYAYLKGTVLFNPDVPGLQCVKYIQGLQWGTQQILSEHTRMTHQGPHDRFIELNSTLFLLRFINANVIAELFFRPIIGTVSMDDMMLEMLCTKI
# [15] = viability of PTEN-deleted HCT116 cells – cell-based, HCT116 PTEN knockout, dose response (AID 1047); format: functional;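 note: HCT116 colon tumor cells with PTEN knocked out; cells exposed to compound for 60 hours before readout; potency for loss of cell viability measured by luminescence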
# [16] = viability of HCT116 lacking mutant beta-catenin – cell-based, human colon tumor, dose response (AID 1045); format: functional;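 note: HCT116 colon tumor cells with beta catenin knocked out; cells exposed to compound for 60 hours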
# [17] = Luminescence Cell-Based Dose Retest to Confirm Inhibitors of Cancer Stem Cells. [Related pubchem assays (depositor defined):AID2717, AID2721]; format: functional; conditions: Homo sapiens
# [18] = activation of miR-122 Renilla sensor silencing – cell-based, Huh7 psiCHECK-miR122, Renilla luciferase, cherry-picked, dose response (AID 651956); format: functional;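 note: huh7 hepatoma cells stably carrying a psiCHECK-2 miR-122 sensor plasmid; renilla luciferase signal reporting endogenous miR-122 activity after 48 h compound exposure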
# [19] = biological target: T6, Heat shock factor protein 1 (Mus musculus, UniProt P38532); experiment: decrease of HSF1-responsive luciferase luminescence – cell-based, NIH3T3, dose retest, confirmation (AID 2382); format: functional;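 note: NIH3T3 fibroblasts with HSF1-driven luciferase reporter stressed by proteasome inhibitor MG132; luminescence from HSF1-driven luciferase expression after 8 hours of MG132 stress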
# T6 sequence (P38532 whole entry): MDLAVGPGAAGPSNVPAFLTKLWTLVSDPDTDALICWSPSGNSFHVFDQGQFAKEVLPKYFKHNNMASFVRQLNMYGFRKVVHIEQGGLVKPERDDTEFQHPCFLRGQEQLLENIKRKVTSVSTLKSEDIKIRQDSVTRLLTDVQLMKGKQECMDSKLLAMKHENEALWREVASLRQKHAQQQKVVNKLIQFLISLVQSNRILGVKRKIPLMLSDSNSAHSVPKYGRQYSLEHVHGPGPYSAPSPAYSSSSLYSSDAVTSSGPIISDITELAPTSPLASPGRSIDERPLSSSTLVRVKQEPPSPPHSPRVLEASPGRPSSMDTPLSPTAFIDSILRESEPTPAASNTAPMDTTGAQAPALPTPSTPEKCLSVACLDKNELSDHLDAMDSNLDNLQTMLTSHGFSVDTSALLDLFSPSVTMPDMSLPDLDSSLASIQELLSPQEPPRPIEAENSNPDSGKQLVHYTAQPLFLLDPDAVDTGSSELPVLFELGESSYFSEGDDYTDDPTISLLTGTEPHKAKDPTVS
# [20] = biological target: Photoreceptor-specific nuclear receptor (Homo sapiens, UniProt Q9Y5X4); format: functional, cell-based;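 note: CHO-S cells with Gal4-NCOR and VP16-NR2E3 two-hybrid luciferase reporter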
# [21] = luciferase reporter signal suppression in cells – H4 neuroglioma cells, luminescence, dose response (AID 1990); format: functional, cell-based
# [22] = luciferase reporter signal reduction – luminescence, H4-C neuroglioblastoma cells, dose response (AID 2458); format: functional, cell-based;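 note: H4 neuroglioblastoma cells stably carrying a luciferase reporter gene fusion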
# BJ [23] = experiment: BJ-TERT fibroblast viability loss – cell-based, RAS-independent, luminescence, dose response (AID 1933); format: functional; conditions: Homo sapiens
# cells [24] = format: functional, cell-based; remark: listed apart in the source
# [25] = Luminescence Cell-Based Dose Response HTS to Identify Inhibitors of 5'UTR Stem-Loop Driven Prion Protein mRNA Translation in H4 Neuroglioblastoma Cells. [Related pubchem assays: 1827 (Project Summary), 1813 (Primary HTS)]; format: functional
# [26] = alpha-synuclein stem-loop luciferase translation blockers – H4 neuroglioma cells, luminescence, confirmation (AID 1988); format: functional, cell-based
# BJ [27] = experiment: cells; format: functional, cell-based; conditions: Homo sapiens
# BJ [28] = experiment: BJ-TERT-LT-ST fibroblast viability loss – cell-based, RAS-independent, luminescence, dose response (AID 1935); format: functional; conditions: Homo sapiens;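 note: BJ fibroblasts immortalized with TERT plus LT and ST oncogenes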
# [29] = DRD fibroblast viability loss – cell-based, non-viral oncogenic, luminescence, dose response (AID 1934); format: functional; conditions: Homo sapiens
# [30] = alpha-synuclein stem-loop translation blockers – luminescence, H4 neuroglioblastoma cells, dose confirmation, confirmation (AID 2454); format: functional, cell-based;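 note: H4 neuroglioblastoma cells carrying an alpha-synuclein 5'UTR luciferase reporter; potency for inhibition of the luciferase signal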
# Photoreceptor-specific nuclear receptor, sequence (Q9Y5X4 whole entry, the tested form may be a part): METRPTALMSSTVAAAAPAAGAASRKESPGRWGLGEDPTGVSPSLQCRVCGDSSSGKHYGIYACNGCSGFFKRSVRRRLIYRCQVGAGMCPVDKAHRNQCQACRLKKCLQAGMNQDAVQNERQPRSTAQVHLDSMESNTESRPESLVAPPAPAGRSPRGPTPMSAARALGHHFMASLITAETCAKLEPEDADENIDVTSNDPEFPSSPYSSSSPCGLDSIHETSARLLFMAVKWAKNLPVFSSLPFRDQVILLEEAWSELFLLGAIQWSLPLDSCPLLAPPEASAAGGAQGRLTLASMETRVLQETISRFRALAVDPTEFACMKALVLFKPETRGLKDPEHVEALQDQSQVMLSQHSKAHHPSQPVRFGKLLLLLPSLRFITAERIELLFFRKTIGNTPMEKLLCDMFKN
# Paired box protein Pax-8, sequence (Q06710 whole entry): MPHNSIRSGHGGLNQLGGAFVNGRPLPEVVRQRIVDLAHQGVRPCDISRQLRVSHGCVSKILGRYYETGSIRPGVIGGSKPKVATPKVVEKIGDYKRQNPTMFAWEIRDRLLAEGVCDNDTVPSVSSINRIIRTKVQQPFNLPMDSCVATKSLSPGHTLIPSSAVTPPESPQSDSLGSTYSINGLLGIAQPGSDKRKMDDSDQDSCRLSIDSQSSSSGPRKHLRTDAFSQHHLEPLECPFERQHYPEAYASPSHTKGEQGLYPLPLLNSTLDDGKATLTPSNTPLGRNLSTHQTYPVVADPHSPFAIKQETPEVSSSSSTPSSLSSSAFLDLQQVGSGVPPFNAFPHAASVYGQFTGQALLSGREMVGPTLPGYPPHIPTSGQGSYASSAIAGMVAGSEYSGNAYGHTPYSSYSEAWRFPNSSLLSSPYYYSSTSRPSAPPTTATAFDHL
compound,measurement,setting,value
COc1ccc2cc(CNCCOCCOCCNCc3ccc4cc(OC)ccc4c3)ccc2c1,CC50,[1],9.1 µM (active)
same,AC50,[2],2.45 µM (active)
same,AC50,Paired box protein Pax-8,19.1 µM (active)
same,AC50,[3],20.3 µM (active)
O=C(NCc1ccco1)c1ccc(Cn2c(=O)c3sccc3n(Cc3ccc(F)cc3)c2=O)cc1,CC50,[4],44.8 µM (active)
same,AC50,[5],< 0.26 µM (active)
same,AC50,[6],0.349 µM (active)
same,AC50,[7],< 0.26 µM (active)
same,AC50,[8],0.665 µM (active)
same,IC50,cells [9],4.76 µM (active)
CCCCCn1c(N)c(-c2nc3ccccc3o2)c2c([N+](=O)[O-])nn(CC)c(=O)c21,IC50,[10],5.88 µM (active)
same,IC50,[11],8.25 µM (active)
CCCCCNC(=O)C(C1CC1)n1c(=O)c(-c2ccco2)nc2ccccc21 (stereo not drawn),IC50,[12],6.11 µM (active)
O=C(/C(=C/Nc1ccc(Br)cc1)C(=O)C(F)(F)F)c1ccco1,IC50,Protein skinhead-1,27.2 µM (active)
same,IC50,cells [13],> 67.5 µM (inactive)
same,IC50,[14],> 67.5 µM (inactive)
O=C/C(=N\Nc1ccc(Cl)cc1)C(=O)c1ccncc1,EC50,[15],116 µM (active)
same,EC50,[16],42.2 µM (active)
same,AC50,[17],5.23 µM (active)
same,IC50,[12],28.9 µM (inactive)
COCC(=O)N(C)C[C@H]1[C@H](c2ccccc2)[C@@H](CO)N1C(=O)NC(C)C,AC50,[18],50.3 µM (active)
CCOC(=O)Cc1nnc2c(Nc3ccccc3F)nc3nonc3n12,EC50,[19],> 195 µM (not active)
same,IC50,[20],3.87 µM (active)
CN1CCc2c(sc(/N=C/c3c[nH]c4ccccc34)c2C(N)=O)C1,IC50,[10],> 80 µM (inactive)
same,IC50,[11],57.2 µM (inactive)
Cc1sc(NC(=O)/C=C/c2ccc3c(c2)OCO3)nc1-c1ccccc1,IC50,[20],7.04 µM (active)
C=C1CCN([C@@H](Cc2ccccc2)C(=O)Nc2ccc(OC)cc2)S(=O)(=O)c2ccccc21,AC50,[5],0.923 µM (active)
same,AC50,[6],0.848 µM (active)
same,AC50,[7],1.31 µM (active)
same,AC50,[8],2.03 µM (active)
CCOC(=O)CSC1=C(C#N)C(c2ccc(C)o2)CC(=O)N1 (stereo not drawn),EC50,[21],2.61 µM (active)
same,EC50,[22],0.961 µM (active)
same,EC50,BJ [23],1.31 µM (active)
same,EC50,cells [24],1.56 µM (active)
same,EC50,[25],0.894 µM (active)
same,EC50,[26],< 0.1 µM (active)
same,EC50,BJ [27],14.9 µM (active)
same,EC50,BJ [28],1.36 µM (active)
same,EC50,[29],1.04 µM (active)
same,EC50,[30],> 12 µM (inconclusive)
same,IC50,cells [13],> 67.6 µM (inactive)
same,IC50,[14],> 67.6 µM (inactive)
COC(=O)C[C@@H]1CC[C@@H]2[C@H](COc3ccc(NC(=O)Nc4cccc(F)c4)cc3C(=O)N2C)O1,AC50,[18],40.1 µM (active)
